The source of these data is ChEMBL document CHEMBL1149335, “Dual-acting agents that possess free radical scavenging and antithrombotic activities: design, synthesis, and evaluation of phenolic tetrahydro-beta-carboline RGD peptide conjugates” (Bioorg Med Chem Lett, 2006).

Structures are written as SMILES. Numbered stars: 1 amine (or outer) side, 2 acyl side, 3 side chain; on linkers, the order of the positions; unused ones are H or OH. Square brackets hold non-standard residues; d marks the D form. Peptide text beside a SMILES is read from it. X1 = COc1cc(C2c3[nH]c4ccccc4c3CC(C(=O)[*:2])N2[*:1])cc(OC)c1O

Assay [1] deals with PC-12. Kind of assay: H2O2 radical scavenging activity assessed in PC12 cells. The note with it: Rattus norvegicus. It counts as functional, cell-based.
The test system of assay [2] is PC-12. Kind of assay: OH radical scavenging activity assessed in PC12 cells. It counts as functional, cell-based. The conditions noted are these: Rattus norvegicus.
For assay [3], the species on record is Rattus norvegicus. Kind of assay: NO radical scavenging activity assessed as inhibition of Ach-induced vasorelaxation in rat aorta at 0.1 uM. It counts as functional.
The species entered for assay [4] is Oryctolagus cuniculus. Kind of assay: Effect on PAF-induced platelet aggregation in rabbit platelet-rich plasma at 10 uM. It counts as functional.
Assay [5] is filed under the species Rattus norvegicus. As to the kind of experiment: NO radical scavenging activity assessed as inhibition of Ach-induced vasorelaxation in rat aorta at 0.01 uM. The format is functional.
For assay [6], the species on record is Rattus norvegicus. As to the kind of experiment: NO radical scavenging activity assessed as inhibition of Ach-induced vasorelaxation in rat aorta at 1 uM. The format is functional.
The species entered for assay [7] is Oryctolagus cuniculus. Kind of assay: Effect on ADP-induced platelet aggregation in rabbit platelet-rich plasma at 10 uM. It counts as functional.
The species named for assay [8] is Oryctolagus cuniculus. As to the kind of experiment: Effect on ADP-induced platelet aggregation in rabbit platelet-rich plasma at 1 uM. It counts as functional.
Assay [9] is filed under the species Oryctolagus cuniculus. Kind of assay: Effect on ADP-induced platelet aggregation in rabbit platelet-rich plasma at 0.1 uM. The format is functional.
The species entered for assay [10] is Oryctolagus cuniculus. As to the kind of experiment: Effect on PAF-induced platelet aggregation in rabbit platelet-rich plasma at 1 uM. It counts as functional.
The species named for assay [11] is Oryctolagus cuniculus. As to the kind of experiment: Effect on PAF-induced platelet aggregation in rabbit platelet-rich plasma at 0.1 uM. The format is functional.
In assay [12] the test system is Rattus norvegicus. As to the kind of experiment: Decrease in weight of wet thrombus in rat at 5 umol/kg. It counts as functional.
Assay [13] relates to Rattus norvegicus. Kind of assay: Decrease in weight of dry thrombus in rat at 5 umol/kg. It counts as functional.
The subject of assay [14] is PC-12. As to the kind of experiment: NO radical scavenging activity assessed in PC12 cells. It counts as functional, cell-based. The note with it: Rattus norvegicus.

With `COc1cc(C2NC(C(=O)N[C@@H](CCCN=C(N)N)C(=O)NCC(=O)N[C@@H](CC(=O)O)C(=O)N[C@@H](Cc3ccccc3)C(=O)O)Cc3c2[nH]c2ccccc32)cc(OC)c1O` (some centres undefined) (H-[X1]RGDF-OH), the EC50 stood at 67.9 µM with PC-12 [1], 90.4 µM with PC-12 [2] and 92.8 µM with PC-12 [14]. For the same compound, the inhibition in the assay listed under Rattus norvegicus [3] amounted to 73.3%; in the assay filed under Rattus norvegicus [5] it was 25.4%; in the assay listed under Rattus norvegicus [6], 90.9%. For the same compound, the Activity in the assay listed under Oryctolagus cuniculus [4] worked out at 21.52%; in the assay filed under Oryctolagus cuniculus [7] it was 13.11%; in the assay listed under Oryctolagus cuniculus [8] it was 29.43%; in the assay filed under Oryctolagus cuniculus [9], 38%; in the assay filed under Oryctolagus cuniculus [10] it was 25.33%; in the assay filed under Oryctolagus cuniculus [11], 36.59%. In addition, the Activity in the assay on Rattus norvegicus [12] stood at 22.09 mg; in the assay on Rattus norvegicus [13], 2.68 mg.

`CC(C)[C@H](NC(=O)[C@H](CC(=O)O)NC(=O)CNC(=O)[C@@H](N)CCCNC(=N)N)C(=O)O` (H-RGDV-OH): the Activity was 20.01% in the assay listed under Oryctolagus cuniculus [4]; 11.65% in the assay filed under Oryctolagus cuniculus [7]; 29.61% in the assay listed under Oryctolagus cuniculus [8]; 51.78% in the assay filed under Oryctolagus cuniculus [9]; 34.84% in the assay filed under Oryctolagus cuniculus [10]; 55.07% in the assay filed under Oryctolagus cuniculus [11]. Further, the Activity with Rattus norvegicus [12] was 35.6 mg; in the assay with Rattus norvegicus [13], 6.43 mg.

Regarding `N=C(N)NCCC[C@H](N)C(=O)NCC(=O)N[C@@H](CC(=O)O)C(=O)N[C@@H](Cc1ccccc1)C(=O)O` (H-RGDF-OH), the Activity in the assay filed under Oryctolagus cuniculus [4] stood at 7.73%; in the assay filed under Oryctolagus cuniculus [7] it was 7.87%; in the assay listed under Oryctolagus cuniculus [8], 22.71%; in the assay filed under Oryctolagus cuniculus [9] it was 34.99%; in the assay filed under Oryctolagus cuniculus [10], 24.02%; in the assay filed under Oryctolagus cuniculus [11], 40.39%. The Activity is reported as 26.68 mg with Rattus norvegicus [12] and 4.05 mg in the assay on Rattus norvegicus [13].

As for `COc1cc(C2N[C@H](C(=O)O)Cc3c2[nH]c2ccccc32)cc(OC)c1O` (some centres undefined), the EC50 in the assay with PC-12 [1] turned out to be 43.7 µM; in the assay with PC-12 [14], 89.7 µM. Moreover, the inhibition in the assay filed under Rattus norvegicus [3] stood at 57.2%; in the assay listed under Rattus norvegicus [5], 10.9%; in the assay filed under Rattus norvegicus [6] it was 79.9%. The Activity came to 36.34% in the assay filed under Oryctolagus cuniculus [4]; 27.33% in the assay listed under Oryctolagus cuniculus [7]; 46.65% in the assay listed under Oryctolagus cuniculus [8]; 54.88% in the assay listed under Oryctolagus cuniculus [9]; 51.42% in the assay listed under Oryctolagus cuniculus [10]; 55.8% in the assay listed under Oryctolagus cuniculus [11]. In addition, the Activity with Rattus norvegicus [12] was 43.76 mg; in the assay with Rattus norvegicus [13] it was 7.27 mg.

As for `COc1cc(C2NC(C(=O)N[C@@H](CCCN=C(N)N)C(=O)NCC(=O)N[C@@H](CC(=O)O)C(=O)N[C@@H](CO)C(=O)O)Cc3c2[nH]c2ccccc32)cc(OC)c1O` (some centres undefined) (H-[X1]RGDS-OH), the values for the EC50 in the assay on PC-12 [1], in the assay on PC-12 [2] and with PC-12 [14] were 30.6 µM, 95.4 µM and 87.6 µM, respectively. In addition, the inhibition came out at 60.7% in the assay listed under Rattus norvegicus [3], 12.8% in the assay listed under Rattus norvegicus [5] and 91.9% in the assay listed under Rattus norvegicus [6]. Moreover, the Activity in the assay filed under Oryctolagus cuniculus [4] was found to be 28.61%; in the assay filed under Oryctolagus cuniculus [7], 11.33%; in the assay filed under Oryctolagus cuniculus [8] it was 28.31%; in the assay listed under Oryctolagus cuniculus [9], 49.37%; in the assay listed under Oryctolagus cuniculus [10], 34.59%; in the assay listed under Oryctolagus cuniculus [11] it was 55.62%. Further, the Activity was determined as 28.01 mg in the assay on Rattus norvegicus [12] and 5 mg with Rattus norvegicus [13].

Consider `COc1cc(C2NC(C(=O)N[C@@H](CCCN=C(N)N)C(=O)NCC(=O)N[C@@H](CC(=O)O)C(=O)N[C@H](C(=O)O)C(C)C)Cc3c2[nH]c2ccccc32)cc(OC)c1O` (some centres undefined) (H-[X1]RGDV-OH), for which the results for the EC50 in the assay on PC-12 [1], in the assay with PC-12 [2] and with PC-12 [14] were 33.5 µM, 92.3 µM and 90.3 µM, respectively. Further, the inhibition in the assay filed under Rattus norvegicus [3] is 71.2%; in the assay filed under Rattus norvegicus [5], 13.3%; in the assay filed under Rattus norvegicus [6] it was 92.2%. Also, the Activity is on record as 25.88% in the assay listed under Oryctolagus cuniculus [4]; 14.38% in the assay filed under Oryctolagus cuniculus [7]; 29.6% in the assay listed under Oryctolagus cuniculus [8]; 50.2% in the assay listed under Oryctolagus cuniculus [9]; 35.8% in the assay listed under Oryctolagus cuniculus [10]; 54.06% in the assay filed under Oryctolagus cuniculus [11]. Further, the Activity with Rattus norvegicus [12] was 29.05 mg; in the assay on Rattus norvegicus [13] it was 4.85 mg.

Consider `N=C(N)NCCC[C@H](N)C(=O)NCC(=O)N[C@@H](CC(=O)O)C(=O)N[C@@H](CO)C(=O)O`, for which the Activity is 22.03% in the assay filed under Oryctolagus cuniculus [4]; 16.6% in the assay listed under Oryctolagus cuniculus [7]; 39.62% in the assay listed under Oryctolagus cuniculus [8]; 52.5% in the assay listed under Oryctolagus cuniculus [9]; 36.47% in the assay listed under Oryctolagus cuniculus [10]; 56.69% in the assay listed under Oryctolagus cuniculus [11]. Besides, the Activity in the assay with Rattus norvegicus [12] is 42.9 mg; in the assay on Rattus norvegicus [13], 7.62 mg.
